In brackets after ≈: the same amount, converted by molar mass.
Test: Solubility of the materials in various solvents at 20° C.
Assay type: physicochemical
Details: organic solvent or mixture, thermodynamic from solid
Procedure: For the purposes of this application, the solubility of a material in a solvent is taken to mean the highest material-to-solvent ratio in which the solution at room temperature (at about 20° C.), is clear and stays clear for at least several hours, preferably for at least 5 hours.
The solubility of a material in a solvent is the highest material-to-solvent ratio in which the solution at 20° C. is clear and stays clear for several hours.
The solubility (g/l) is determined according to the following method:
(1) A known amount of the solvent (for example 100 mL) is put in a container
(2) A defined amount of the material is added and the mixture is stirred with a magnetic stirring bar;

[1] = LM8 Toluene:Hexafluorobenzene (7:3)

| Compound | solubility (LM1 Anisole:Xylene (2:1)) [mg/mL] | solubility (LM2 Anisole) [mg/mL] | solubility (LM3 Xylene) [mg/mL] | solubility (LM4 Chlorobenzene) [mg/mL] | solubility (LM5 THF) [mg/mL] | solubility (LM6 Toluene:THF (9:1)) [mg/mL] | solubility (LM7 Hexafluorobenzene) [mg/mL] | solubility [1] [mg/mL] | solubility (LM9 Meta-difluorobenzene) [mg/mL] | solubility (LM10 Fluorobenzene) [mg/mL] | solubility (LM11 Acetonitrile) [mg/mL] | solubility (LM12 Benzonitrile) [mg/mL] | solubility (LM13 Acetone) [mg/mL] | solubility (LM14 DMF) [mg/mL] | solubility (LM15 Toluene:DMF (8:2)) [mg/mL] | solubility (LM16 DMSO) [mg/mL] | solubility (LM17 Methanol) [mg/mL] | solubility (LM18 Toluene:Methanol (8:2)) [mg/mL] | solubility (LM19 EGDME) [mg/mL] | solubility (LM20 Toluene) [mg/mL] |
| --- | --- | --- | --- | --- | --- | --- | --- | --- | --- | --- | --- | --- | --- | --- | --- | --- | --- | --- | --- | --- |
| O=C([O][Bi]([O]C(=O)c1ccc(F)c(F)c1F)[O]C(=O)c1ccc(F)c(F)c1F)c1ccc(F)c(F)c1F [M1] | < 7.5 | < 7.5 | < 7.5 | < 7.5 | > 100 | > 30 | 15 to 20 | 15 | < 7.5 | < 7.5 | < 10 | > 20 | > 20 | > 40 | 15 | > 20 | > 20 | 20 | > 20 | < 7.5 |
| CC1(C)c2ccccc2-c2ccc(N(c3ccc4c(c3)C3(c5ccccc5-c5ccccc53)c3ccccc3-4)c3ccccc3-c3ccccc3)cc21 [OS6] | > 50 | 100 (≈ 148 mM) | 40 (≈ 59.2 mM) |  | > 40 | > 50 |  | 30 (≈ 44.4 mM) |  |  |  |  |  | 10 (≈ 14.8 mM) | 25 (≈ 37 mM) | 10 (≈ 14.8 mM) |  | 30 (≈ 44.4 mM) |  | 60 (≈ 88.8 mM) |
